{"source": "paper PMC10541190", "about": "(The Journal of Clinical Investigation, 2023)", "key": {"ErbB1 (EGFR)": {"test_system": "ErbB1 (EGFR)", "settings": "read-out: KD of binding or IC50 (nM), ErbB1; cited from earlier work"}, "JAK": {"test_system": "JAK", "settings": "cited from earlier work"}, "SRMS": {"test_system": "SRMS", "settings": "cited from earlier work"}, "MAP2K5": {"test_system": "MAP2K5", "settings": "cited from earlier work"}, "in vitro [1]": {"test": "in vitro", "settings": "human"}, "ErbB3": {"test_system": "ErbB3", "settings": "cited from earlier work"}, "ErbB4": {"test_system": "ErbB4", "settings": "cited from earlier work"}, "ErbB2": {"test_system": "ErbB2", "settings": "cited from earlier work"}, "VEEV (TC-83)": {"test_system": "VEEV (TC-83)", "test": "microbe, parasite or virus in culture", "format": "cell-based", "settings": "Venezuelan equine encephalitis virus, U-87 MG, read-out: EC50, VEEV (TC-83) infection"}, "BLK": {"test_system": "BLK", "settings": "cited from earlier work"}, "ErbB1": {"test_system": "ErbB1", "settings": "cited from earlier work"}, "[2]": {"test_system": "SARS-CoV-2 (USA-WA1/2020)", "test": "microbe, parasite or virus in culture", "format": "cell-based", "settings": "Severe acute respiratory syndrome coronavirus 2, Calu-3, read-out: EC50, SARS-CoV-2 infection"}, "in vitro [3]": {"test": "in vitro", "settings": "human", "remark": "listed apart in the source"}, "BTK": {"test_system": "BTK", "settings": "cited from earlier work"}}, "data": [{"smiles": "C=CC(=O)N1CCC[C@@H](n2nc(-c3ccc(Oc4ccccc4)cc3)c3c(N)ncnc32)C1", "note": "[Ibrutinib]", "values": [{"measurement": "IC50", "setting": "ErbB1 (EGFR)", "result": 1.8, "unit": "nM"}, {"measurement": "Other targets: JAK (% of control)", "setting": "JAK", "result": "JAK (0%), BTK (0%), SRMS (0%), BLK (0.1%), ErbB3 (0.1%), MAP2K5 (0.2%)"}, {"measurement": "Other targets: SRMS (% of control)", "setting": "SRMS", "result": "JAK (0%), BTK (0%), SRMS (0%), BLK (0.1%), ErbB3 (0.1%), MAP2K5 (0.2%)"}, {"measurement": "Other targets: MAP2K5 (% of control)", "setting": "MAP2K5", "result": "JAK (0%), BTK (0%), SRMS (0%), BLK (0.1%), ErbB3 (0.1%), MAP2K5 (0.2%)"}, {"measurement": "CC50", "setting": "in vitro [1]", "result": "> 20000", "unit": "nM"}, {"measurement": "Other targets: ErbB3 (% of control)", "setting": "ErbB3", "result": "JAK (0%), BTK (0%), SRMS (0%), BLK (0.1%), ErbB3 (0.1%), MAP2K5 (0.2%)"}, {"measurement": "% of control, ErbB4", "setting": "ErbB4", "result": 1.0, "unit": "nM 0%"}, {"measurement": "% of control, ErbB2", "setting": "ErbB2", "result": 12.1, "unit": "nM 0%"}, {"measurement": "EC50", "setting": "VEEV (TC-83)", "result": 500, "unit": "nM"}, {"measurement": "Other targets: BLK (% of control)", "setting": "BLK", "result": "JAK (0%), BTK (0%), SRMS (0%), BLK (0.1%), ErbB3 (0.1%), MAP2K5 (0.2%)"}, {"measurement": "% of control, ErbB1", "setting": "ErbB1", "result": 1.8, "unit": "nM 1.8%"}, {"measurement": "EC50", "setting": "[2]", "result": 800, "unit": "nM"}, {"measurement": "CC50", "setting": "in vitro [3]", "result": "> 20000", "unit": "nM"}, {"measurement": "Other targets: BTK (% of control)", "setting": "BTK", "result": "JAK (0%), BTK (0%), SRMS (0%), BLK (0.1%), ErbB3 (0.1%), MAP2K5 (0.2%)"}]}]}
